According to PubChem BioAssay (NCI):
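Step 1: Grow cells in 96-well plates. Step 2: Expose to compound for 48 hours at 5 concentrations. Step 3: Interpolate endpoints linearly; if unreached, use highest concentration. Here, GI50 denotes the concentration required for 50% inhibition of growth. TGI marks complete inhibition of growth.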

Tests used:
Experiment in all cases: growth of human tumour cells (NCI), 48 h
[1] = tested on: EKVX NSCLC
[2] = tested on: HCT-15 colon
[3] = tested on: COLO 205 colon
[4] = tested on: MCF7 breast
[5] = tested on: NCI-H522 lung
[6] = tested on: BT-549 breast
[7] = tested on: OVCAR-4 ovarian
[8] = tested on: SF-295 CNS
[9] = tested on: OVCAR-3 ovarian
[10] = tested on: IGROV1 ovarian

Structure (SMILES) | GI50 [1] [µM] | TGI [1] [µM] | GI50 [2] [µM] | TGI [2] [µM] | GI50 [3] [µM] | TGI [3] [µM] | GI50 [4] [µM] | TGI [4] [µM] | GI50 [5] [µM] | TGI [5] [µM] | GI50 [6] [µM] | TGI [6] [µM] | GI50 [7] [µM] | TGI [7] [µM] | GI50 [8] [µM] | TGI [8] [µM] | GI50 [9] [µM] | TGI [9] [µM] | GI50 [10] [µM] | TGI [10] [µM]
N#C/C(=C\c1ccc(-c2ccc(Cl)cc2)o1)C(=O)Nc1ncc(Cc2ccc(Cl)cc2)s1 | 2 | 5.16 | 2.3 | > 100 | 2.45 | 7.39 | 2.51 | > 100 | 1.94 | 4.86 | 2.34 | 10.4 | 0.422 | 2.01 | 2.84 | 8.73 | 1.41 | 3.14 | 2.2 | 5.99
O=C(Nc1ccccc1O)c1cccc(NC2=C(Cl)C(=O)N(Cc3ccccc3)C2=O)c1 | 15.1 | 28.8 | 2.02 | 5.13 | 13.2 | 40 | 2.7 | 14.8 | 9.02 | 28.5 | 11.9 | 29.8 | 10.3 | 45.4 | 4.46 | 12.5 | 2.62 | 7.85 | 2.87 | 8.65
C[n+]1c(/C=C\c2ccc(Cl)cc2)ccc2ccccc21 | 2.45 | > 100 | 53.2 | > 100 | 4.28 | 24.4 | 20.2 | > 100 | 12.4 | 89.4 | 4.78 | 76.4 | 12 | > 100 | 13.8 | > 100 | 7.34 | 31.4 | 27.2 | > 100
CC1=NN(c2ccccc2)C(=O)C1N=Nc1ccc([As](=O)(O)O)c(O)c1 (configuration not stated) |  | > 100 |  | > 100 |  | > 100 |  | > 100 |  | > 100 |  | > 100 |  | > 100 |  | > 100 |  | > 100 |  | > 100
Cc1nc(Cl)nc(Cl)c1C |  | > 100 |  | > 100 |  |  |  | > 100 |  | > 100 |  | > 100 |  | > 100 |  | > 100 |  | > 100 |  | > 100
CCOc1c(Br)cc(C2C(C(=O)OC)=CN(C)C=C2C(=O)OC)cc1OC |  |  | 33.9 | > 100 | 99.2 | > 100 | 40.6 | > 100 | 39.7 | > 100 | 76 | > 100 | 54.1 | > 100 | 57.9 | > 100 | 45.6 | > 100 | > 100 | > 100
COC(=O)Nc1nc2ccc(Oc3ccc(NC(=O)Nc4cccc(C(=O)O)c4)cc3)cc2[nH]1 | > 23 | > 25 | 6.49 | > 25 | 6.21 | > 16.5 | 4.73 | 24.3 | 4 | > 19 | 14.8 | > 25 | 9.77 | > 25 | 5.61 | > 21.7 | 4.41 | 10.5 | 12.7 | > 25
Cn1cc(C2=C(c3cccc4ccccc34)C(=O)NC2=O)c2ccccc21 |  |  | 6.66 | > 25 | 7.23 | > 22.9 | 5.7 | > 25 | 6.53 | 19.1 | 7.49 | 19.7 | 7.21 | > 23.8 | 8.26 | > 23.1 | 6.06 | 14.4 | 11.2 | > 24.1
COc1cc(-c2nc(Nc3nc4ccccc4[nH]3)nc(N)c2C#N)cc(OC)c1OC | 41.4 | > 100 | 18.1 | > 100 | 1.74 | > 50.7 | 0.503 | > 33.8 | 0.45 | 3.61 | 0.857 | 37.1 | 12.9 | 34.7 | 0.191 |  | 0.286 | 3.61 | 6.2 | > 54
CCCN(CCC)C(=O)C1=Cc2ccc(-c3ccc(C(=O)N4CCCC4)cc3)cc2N=C(N)C1 | 11.8 | 57.1 | 4.8 | 23.1 | 4.26 | 16.3 | 3.32 | 15.3 | 4.68 | 18.8 | 12.8 | 33.3 | 9.45 | 69.5 | 4.92 | 24.5 | 8.19 | 26.2 | 14.4 | 54.8
COc1cccc(C2c3cc4c(cc3OC(C)(O)C2C)OCO4)c1O (configuration not stated) |  | > 100 |  | 27.8 |  | 6.15 |  | 49.6 |  | 5.6 |  | 52.8 |  | > 96.1 |  | 14.1 |  | 8.48 |  | 69.2
CC1CC2(C)ON=C(c3ccccc3)N2c2ccccc2S1 (configuration not stated) | 29.4 |  | 44.6 |  | 22.6 | 56.2 | 31.4 | 79 | 27.5 | 65.5 | 24.8 | 67.4 | 88 |  | 28.9 | 79.1 | 94.1 |  | 53 | 
C=C1C(=O)O[C@@H]2C[C@@]3(C)CCC[C@H](C)C3=C[C@H]12 |  | 28.2 |  | 17.1 |  | 3.39 |  | 17.2 |  | 11.1 |  | 15.7 |  | 17.6 |  | 34.5 |  | 19.5 |  | 29.6
CC1=CC(=NC(=O)CBr)C=C/C1=N\S(=O)(=O)c1ccccc1 |  |  | 1.99 | 4.67 | 5.96 | 21.2 | 1.8 | 4.37 | 1.61 | 3.72 | 3.15 | 10.6 | 2.61 | 13.2 | 15.8 | 33.1 | 2.04 | 4.47 | 3.1 | 12.1
